What is called Ki is a measure of affinity in units of concentration, obtained from inhibition or displacement.

Drawing on ChEMBL document CHEMBL3639236, “Nitrogen containing morphinan derivatives and the use thereof” (2015), this text covers Ki for 2 compounds.

For assay [1], the target named is Kappa-type opioid receptor (Homo sapiens, UniProt P41145). Put plainly: (§1) Radioligand Dose-Displacement Binding Assay: Radioligand dose-displacement binding assays for u-opioid receptors used 0.3 nM [3H]-diprenorphine (Perkin Elmer, Shelton, Conn.), with […] in a final volume of 500 ul binding buffer (10 mM MgCl2, 1 mM EDTA, 5% DMSO, 50 mM HEPES, pH 7.4). Reactions were carried out in the absence or presence of increasing concentrations of unlabeled naloxone. All reactions were conducted in 96-deep well polypropylene plates for 2 hours at room temperature. Binding reactions were terminated by rapid filtration onto 96-well Unifilter GF/C filter plates (Perkin Elmer, Shelton, Conn.), presoaked in 0.5% polyethylenimine using a 96-well tissue harvester (Perkin Elmer, Shelton, Conn.) followed by performing three filtration washes with 500 ul of ice-cold binding buffer. Filter plates were subsequently dried at 50 C. for 2-3 hours. BetaScint scintillation cocktail (Perkin Elmer, Shelton, Conn.) was added (50 ul/well), and plates were counted using a Packard Top-Counter.
Chain of Kappa-type opioid receptor (P41145 whole entry): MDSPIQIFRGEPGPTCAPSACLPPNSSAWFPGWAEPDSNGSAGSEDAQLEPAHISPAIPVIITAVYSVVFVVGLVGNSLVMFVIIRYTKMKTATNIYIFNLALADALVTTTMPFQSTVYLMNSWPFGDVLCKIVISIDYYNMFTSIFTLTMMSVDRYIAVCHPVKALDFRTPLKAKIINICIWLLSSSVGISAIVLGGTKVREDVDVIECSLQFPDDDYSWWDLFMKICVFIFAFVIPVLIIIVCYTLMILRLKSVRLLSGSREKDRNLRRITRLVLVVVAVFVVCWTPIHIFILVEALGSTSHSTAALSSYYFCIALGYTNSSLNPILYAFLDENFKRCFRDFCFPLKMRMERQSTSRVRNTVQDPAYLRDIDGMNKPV

The next assay deals with Mu-type opioid receptor (Homo sapiens, UniProt P35372). The description is as §1.
Chain of Mu-type opioid receptor (P35372 whole entry): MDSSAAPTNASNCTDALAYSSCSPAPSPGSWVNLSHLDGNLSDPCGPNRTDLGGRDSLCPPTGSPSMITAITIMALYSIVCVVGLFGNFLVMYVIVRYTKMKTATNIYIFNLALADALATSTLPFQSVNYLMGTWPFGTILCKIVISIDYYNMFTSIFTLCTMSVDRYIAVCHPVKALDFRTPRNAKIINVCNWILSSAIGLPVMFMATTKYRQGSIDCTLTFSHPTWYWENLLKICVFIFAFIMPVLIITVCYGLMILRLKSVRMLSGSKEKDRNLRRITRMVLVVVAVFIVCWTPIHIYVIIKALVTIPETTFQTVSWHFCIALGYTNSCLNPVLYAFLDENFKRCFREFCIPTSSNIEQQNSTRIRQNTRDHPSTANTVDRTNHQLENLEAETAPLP

For the compound `COc1ccc(CN2C[C@H]3[C@H]4Cc5ccc(OC)cc5[C@@]3(CCN4CC3CC3)CC2=O)cc1`, the Ki in assay [1] worked out at 411 nM. Turning to `COc1ccc(CN2C=C3[C@H]4Cc5ccc(OC)cc5[C@@]3(CCN4CC3CC3)CC2=O)cc1`, the figures for the Ki (in assay [1]; on Mu-type opioid receptor) were 13.1 nM and 218 nM, respectively.
